Measurements: ChEMBL document CHEMBL4017481, “Computer-aided discovery of two novel chalcone-like compounds active and selective against Leishmania infantum” (Bioorg Med Chem Lett, 2017)

Columns and labels:
[1] = (§1) Cytotoxicity against African green monkey Vero cells measured after 72 hrs by resazurin assay; type: cell-based; details: chlorocebus sabaeus, Vero cells
Leishmania infantum = test: microbe, parasite or virus in culture; type: functional; details: MHOM/BR/1972/BH046, 72 h
Description: Anti-leishmanial activity against Leishmania infantum MHOM/BR/1972/BH046 amastigotes infected in cells measured after 3 days by Draq5 staining based assay

[2] = (§2) Cytotoxicity against human THP1 cells measured after 72 hrs by resazurin assay; type: cell-based, THP-1; details: THP-1 cells
in vitro [3] = details: human
Description: Selectivity index, ratio of CC50 for human THP1 cells to EC50 for Leishmania infantum MHOM/BR/1972/BH046 amastigotes

in vitro [4] = details: monkey, Vero cells
Description: Selectivity index, ratio of CC50 for African green monkey Vero cells to EC50 for Leishmania infantum MHOM/BR/1972/BH046 amastigotes

THP-1 = test: as §2; type: cell-based; details: thp-1, 72 h
Vero = test: as §1; type: cell-based; details: chlorocebus sabaeus, vero, 72 h

CC(C)(C)c1ccc(C(=O)/C=C/c2ccc([N+](=O)[O-])o2)cc1
CC50 at 72 h [1]: > 100 µM | EC50 (Leishmania infantum): > 50 µM | CC50 at 72 h [2]: > 50 µM

Cc1cccc(C(=O)/C=C/c2ccc([N+](=O)[O-])o2)c1
CC50 at 72 h [1]: 55.1 µM | EC50 (Leishmania infantum): > 50 µM | selectivity ratio (in vitro [3]; THP-1 cells): > 50 | CC50 at 72 h [2]: 42.1 µM

O=C(/C=C/c1ccc([N+](=O)[O-])o1)c1ccc(-n2ccnc2)cc1
CC50 at 72 h [1]: > 100 µM | EC50 (Leishmania infantum): 12.4 µM | selectivity ratio (in vitro [3]; THP-1 cells): 1.79 | selectivity ratio (in vitro [4]): 8.1 | CC50 at 72 h [2]: 22.2 µM

O=C(/C=C/c1ccco1)c1ccc(N2CCCCC2)cc1
EC50 (Leishmania infantum): > 50 µM | selectivity ratio (in vitro [3]; THP-1 cells): > 50 | CC50 at 72 h [2]: > 50 µM

O=C(/C=C/c1ccc([N+](=O)[O-])cc1)c1ccc(N2CCCCC2)cc1
EC50 (Leishmania infantum): > 50 µM | CC50 (THP-1): > 50 µM

O=C(/C=C/c1ccc([N+](=O)[O-])o1)c1ccc(N2CCNCC2)cc1
CC50 (Vero): > 100 µM | EC50 (Leishmania infantum): 9.6 µM | selectivity ratio (in vitro [3]; THP-1 cells): > 5.2 | selectivity ratio (in vitro [4]): 10 to 10.4 | CC50 (THP-1): > 50 µM

CSc1ccc(C(=O)/C=C/c2ccco2)cc1
EC50 (Leishmania infantum): 45.5 µM | selectivity ratio (in vitro [3]; THP-1 cells): > 1.09 | CC50 at 72 h [2]: > 50 µM

O=C(/C=C/c1ccc([N+](=O)[O-])s1)c1ccc(C2CCCCC2)cc1
EC50 (Leishmania infantum): > 50 µM | CC50 at 72 h [2]: > 50 µM

COc1ccc(/C=C/C(=O)c2cccc(Br)c2)cc1
CC50 at 72 h [1]: > 100 µM | EC50 (Leishmania infantum): > 50 µM | selectivity ratio (in vitro [3]; THP-1 cells): > 50 | CC50 at 72 h [2]: > 50 µM

CCCCc1ccc(C(=O)/C=C/c2ccc([N+](=O)[O-])s2)cc1
CC50 at 72 h [1]: 81.3 µM | EC50 (Leishmania infantum): > 50 µM | CC50 at 72 h [2]: 17.1 µM

C[C@@H]1[C@H](O)[C@@H](C)/C=C/C=C/C=C/C=C/C=C/C=C/C=C/[C@H](O[C@@H]2O[C@H](C)[C@@H](O)[C@H](N)[C@@H]2O)C[C@@H]2O[C@](O)(C[C@@H](O)C[C@@H](O)[C@H](O)CC[C@@H](O)C[C@@H](O)CC(=O)O[C@H]1C)C[C@H](O)[C@H]2C(=O)O [AMPHOTERICIN B]
EC50 (Leishmania infantum): 1.92 µM | selectivity ratio (in vitro [3]): > 26 | CC50 at 72 h [2]: > 50 µM

O=C(/C=C/c1ccc([N+](=O)[O-])o1)c1ccc(-c2ccccc2)cc1
CC50 at 72 h [1]: > 100 µM | EC50 (Leishmania infantum): 21.4 µM | selectivity ratio (in vitro [3]; THP-1 cells): 2.35 | selectivity ratio (in vitro [4]): 4.7 | CC50 at 72 h [2]: 50.4 µM

O=C(/C=C/c1ccc([N+](=O)[O-])o1)c1ccc(N2CCOCC2)cc1
CC50 at 72 h [1]: > 100 µM | CC50 at 72 h [2]: 49 µM

O=C(/C=C/c1ccc([N+](=O)[O-])s1)c1ccc(N2CCOCC2)cc1
EC50 (Leishmania infantum): > 50 µM | CC50 at 72 h [2]: 39.9 µM

O=C(/C=C/c1ccc([N+](=O)[O-])s1)c1ccc(-n2ccnc2)cc1
CC50 at 72 h [1]: 42.7 µM | EC50 (Leishmania infantum): 31.4 µM | selectivity ratio (in vitro [3]; THP-1 cells): 0.75 | selectivity ratio (in vitro [4]): 1.3 | CC50 at 72 h [2]: 23.4 µM

Cc1ccc(C(=O)/C=C/c2ccc([N+](=O)[O-])s2)cc1
EC50 (Leishmania infantum): > 50 µM | CC50 at 72 h [2]: 13.5 µM

COc1ccc(/C=C/C(=O)c2cccc(I)c2)cc1
CC50 (Vero): > 100 µM | EC50 (Leishmania infantum): > 50 µM | selectivity ratio (in vitro [4]): 2 | CC50 (THP-1): > 50 µM

Cc1ccccc1C(=O)/C=C/c1ccc([N+](=O)[O-])o1
CC50 at 72 h [1]: 41.3 µM | EC50 (Leishmania infantum): 37.7 µM | selectivity ratio (in vitro [3]; THP-1 cells): 0.74 | selectivity ratio (in vitro [4]): 1 | CC50 at 72 h [2]: 27.9 µM

O=C(/C=C/c1ccc([N+](=O)[O-])o1)c1ccc(I)cc1
CC50 (Vero): > 100 µM | selectivity ratio (in vitro [3]; THP-1 cells): 1.8 to 1.82 | selectivity ratio (in vitro [4]): 3.6 | CC50 at 72 h [2]: 49.5 µM

CSc1ccc(C(=O)/C=C/c2ccc([N+](=O)[O-])o2)cc1
CC50 (Vero): 40.7 µM | EC50 (Leishmania infantum): 9.31 µM | selectivity ratio (in vitro [3]; THP-1 cells): 1.4 to 1.41 | selectivity ratio (in vitro [4]): 4.3 | CC50 at 72 h [2]: 13.1 µM

CC(C)(C)c1ccc(C(=O)/C=C/c2ccc([N+](=O)[O-])s2)cc1
CC50 (Vero): > 100 µM | EC50 (Leishmania infantum): 31.1 µM | selectivity ratio (in vitro [3]; THP-1 cells): 0.2 to 0.27 | selectivity ratio (in vitro [4]): 3 to 3.2 | CC50 at 72 h [2]: 8.4 to 8.49 µM

O=C(/C=C/c1ccc([N+](=O)[O-])o1)c1ccc(Br)cc1
CC50 at 72 h [1]: > 100 µM | EC50 (Leishmania infantum): 29.1 µM | selectivity ratio (in vitro [3]; THP-1 cells): 0.46 | selectivity ratio (in vitro [4]): 3.4 | CC50 at 72 h [2]: 13.4 µM

O=C(/C=C/c1ccc([N+](=O)[O-])o1)c1cccc(Br)c1
CC50 (Vero): 68.8 µM | EC50 (Leishmania infantum): 23.8 µM | selectivity ratio (in vitro [3]; THP-1 cells): 0.6 to 0.63 | selectivity ratio (in vitro [4]): 2.8 to 2.9 | CC50 (THP-1): 14.9 µM

O=C(/C=C/c1ccc([N+](=O)[O-])o1)c1ccc(N2CCCCC2)cc1
CC50 (Vero): 349 µM | EC50 (Leishmania infantum): 6.32 µM | selectivity ratio (in vitro [3]; THP-1 cells): > 7.91 | selectivity ratio (in vitro [4]): 55 | CC50 (THP-1): > 50 µM

CSc1ccc(C(=O)/C=C/c2ccc([N+](=O)[O-])s2)cc1
CC50 at 72 h [1]: > 100 µM | EC50 (Leishmania infantum): > 50 µM | CC50 at 72 h [2]: 8.56 µM

O=C(/C=C/c1ccc([N+](=O)[O-])o1)c1ccc(N2CCCC2)cc1
EC50 (Leishmania infantum): 11.8 µM | selectivity ratio (in vitro [3]; THP-1 cells): > 4.26 | CC50 at 72 h [2]: > 50 µM

CC(C)(C)c1ccc(C(=O)/C=C/c2ccco2)cc1
EC50 (Leishmania infantum): > 50 µM | CC50 at 72 h [2]: > 50 µM

COc1ccc(/C=C/C(=O)c2ccc(-c3ccccc3)cc2)cc1
EC50 (Leishmania infantum): > 50 µM | CC50 (THP-1): > 50 µM

O=C(/C=C/c1ccc(Cl)s1)c1ccc(-n2ccnc2)cc1
EC50 (Leishmania infantum): 21.4 µM | selectivity ratio (in vitro [3]; THP-1 cells): > 2.33 | CC50 at 72 h [2]: > 50 µM

O=C(/C=C/c1ccc([N+](=O)[O-])o1)c1ccc(C2CCCCC2)cc1
CC50 (Vero): > 100 µM | selectivity ratio (in vitro [3]; THP-1 cells): 2.8 to 2.84 | selectivity ratio (in vitro [4]): 9.1 to 10 | CC50 at 72 h [2]: 3.1 to 31.1 µM

CN(C)c1ccc(/C=C/C(=O)c2ccc(-c3ccccc3)cc2)cc1
EC50 (Leishmania infantum): > 50 µM | CC50 (THP-1): > 50 µM

O=C(/C=C/c1cccc([N+](=O)[O-])c1)c1ccc(N2CCCCC2)cc1
EC50 (Leishmania infantum): 30.8 µM | selectivity ratio (in vitro [3]; THP-1 cells): > 1.62 | CC50 (THP-1): > 50 µM

CCCCc1ccc(C(=O)/C=C/c2ccc([N+](=O)[O-])o2)cc1
CC50 at 72 h [1]: 75.7 µM | EC50 (Leishmania infantum): > 50 µM | CC50 at 72 h [2]: 48.7 µM
